Format in all cases: physicochemical
The nature of data set [1]: Solubility in biorelevant media (shake-flask). The protocol: The experiments were performed in triplicate. Approximately 30 mg of API were weighed in the 8 mL glass vials and an aliquot of media was added (see Table 14 for details). […] Upon completion of the equilibration time, the solids were separated from the liquid phases by centrifugation. The mother liquors were filtered using […] PTFE filters and injected at the HPLC to determine the API concentration in solution. The pH was recorded after 3 hours (1 hour for FaSSGF). The recovered ambient-dried solids were analyzed by HT-XRPD.

A short description of data set [2]: Intrinsic dissolution rate determination in FaSSGF. The following applies: for IDR: FaSSGF pH 1.6, 37° C., interval 3-30 min (Form A1), 10-45 min (Form C); for API concentration in solution: FaSSGF, 37° C. The protocol:
The intrinsic dissolution rate of Forms A1 and C was determined in FaSSGF. […] The pressure applied was approximately 40 bar for 2 minutes. The two tablets were placed in 30 mL vials and afterwards the FaSSGF solution pre-warmed at 37° C. […] After FaSSGF addition, stirring was started. The medium (20 mL) was added to vessels containing tablets of Forms A1 and C. The tablets were kept at 37° C. under continuous stirring. […] In the plot shown in FIG. 14, the % concentration of the API in solution is plotted against the time. The dissolution rate (Table 16) was calculated in the interval between 3 and 30 minutes for the experiment started with Form A1, and in the range 10-45 minutes for the experiment started with Form C.

The nature of data set [3]: Dynamic Vapor Sorption (DVS) measurement. The following applies: for hygroscopic behavior: 40 to 95% RH.
Data set [4] is described as follows: Variable Humidity XRPD (VH-XRPD). The following applies: 30° C., RH profile 40→87→0→60% (Form A1), 40→85→0→60% (Form C). The protocol:
The powder data were collected on D8 Advance diffractometer using Cu Kα1 radiation (1.54056 Å) with germanium monochromator at 30° C. using the SYCOS H-HOT hot humid chamber produced by Ansyco GmbH. The data were collected in the Bragg-Brentano geometry (locked coupled) from 8 to 35° 2θ on the flat sample holder (without rotation) on solid state LynxEye detector with 0.018° per step with 1 sec/step scan speed. After reaching demanded humidity the sample was relaxed for 5 minutes before measurement. The sample was optionally measured with 2 seconds per step and in the last measurement at RH 0% the relaxation time was elongated to 30 min.
Variable Humidity XRPD (VH-XRPD) measurements were performed on Forms A1 and C to investigate the in-situ phase changes induced by exposure to variable RH levels. Diffractograms of Form A1 were collected at 30° C. with a RH profile of 40→87→0→60% (FIG. 2). Initially, the pattern of Form A1 was distinguished at 40% RH. By increasing the RH level up to 87%, no changes in the XRPD pattern were detected. Furthermore, no changes were observed by lowering the RH from 87% down to 20%.

Data set [5] is described as follows: Physical stability test of solid forms. Here is the method: Solid samples of Forms A1, B1 and C were incubated at three different conditions to test their physical stability: 80° C., closed vial, 24 hours; 60° C./29% RH, open vial, 48 hours; and 40° C./75% RH, open vial, 48 hours. The solids recovered after the stability studies were analyzed by HR-XRPD, TGMS and DSC.

Data set [6] in a line: Exposure to accelerated aging conditions (AAC). The following applies: 40° C./75% RH for 2 days. An excerpt: The polymorphic behavior of squalamine phosphate (ENT-01) and the physico-chemical properties of two hydrated phases were investigated. A squalamine tetrahydrate, designated Form A1, was identified. The squalamine polymorphism assessment and hydrate screen allowed identification of several squalamine crystalline phases. Among these phases, four squalamine hydrates (Forms B1, B2, C, D) and three mixed squalamine hydrates/solvates (Forms A2, E, F) were identified. All phases converted to squalamine Form A1 upon exposure to accelerated aging conditions (ACC) (2 days at 40° C./75% RH).
In the vacuum-dried solids, a novel pattern very similar to Form A1 but with shifted peaks was identified. This phase was designated Form A2 (see Table 2) and characterized by HT-XRPD. […] Form A2 was identified in several vacuum-dried solids recovered from the hydrate screen experiments.

Where [7] appears, read: FaSSGF (pH 1.6), 37° C., 1 hour.
[8] abbreviates: FaSSIF (pH 6.5), 37° C., 3 hours.
[9] abbreviates: desorption, between 5 and 0% RH.
[10] abbreviates: desorption, between 25 and 5% RH.
Where [11] appears, read: first sorption cycle, between 45 and 95% RH.
Where [12] appears, read: last sorption cycle, between 25 and 45% RH.
Where [13] appears, read: after 40° C./75% RH, open vial, 48 h (TGMS).
The mark [14] stands for this setting: after 60° C./29% RH, open vial, 48 h (TGMS).
The mark [15] stands for this setting: after 80° C., closed vial, 24 h (TGMS).

Entries after “also recorded” stand apart in the source; their conditions may differ. Read-outs that look alike come from different tables or passages of the source. Some results are limits rather than exact numbers.

For the compound `CC(C)[C@@H](CC[C@@H](C)[C@H]1CC[C@H]2[C@@H]3[C@H](O)C[C@H]4C[C@@H](NCCCNCCCCN)CC[C@]4(C)[C@H]3CC[C@]12C)OS(=O)(=O)O.O=P(O)(O)O` [Form A1, squalamine phosphate], the SOLUBILITY is 9 mg/mL in data set [1] (37 °C, pH 1.6, fassgf or other biorelevant, thermodynamic from solid, FaSSGF (pH 1.6), 1 hour, read-out: SOLUBILITY); approximately 1 mg/mL in data set [1] (37 °C, pH 5.1, fessif, thermodynamic from solid, FeSSIF (initial medium pH 5.1), 3 hours, read-out: SOLUBILITY); less than 0.1 mg/mL in data set [1] (37 °C, pH 6.5, fassif, thermodynamic from solid, FaSSIF (pH 6.5), 3 hours, read-out: SOLUBILITY); ~ 9 mg/mL in data set [1] (setting [7]); 8.9 mg/mL in data set [1] (FaSSGF (pH 1.6), 37° C., 1 hour, listed as A1); “practically insoluble” in data set [1] (setting [8]). Moreover, the SOLUBILITY in data set [1] (FeSSIF (initial medium pH 5.1), 37° C., 3 hours, listed as Al) was found to be 0.8 mg/mL. Besides, the IDR in data set [2] was found to be 0.049 mg/min/cm^2. For the same compound, the “API concentration in solution” value in data set [2] (after 45 minutes) was approximately 20%; in data set [2] (after 60 minutes), “above 30%”. For the same compound, the hygroscopic behavior result in data set [3] is on record as “slightly hygroscopic”. Moreover, the “change in mass (water absorbed)” value in data set [3] (between 35 to 65% RH) is reported as 0.7%. Also, the change in mass in data set [3] (desorption, 95-55% RH) is reported as 0.9%; in data set [3] (setting [9]), 5.3%; in data set [3] (setting [10]), 1.7%; in data set [3] (desorption, between 45 and 25% RH), 0.6%; in data set [3] (desorption, between 55 and 45% RH), 1%; in data set [3] (last sorption cycle, 0-25% RH), 7%. Moreover, the “change in mass (water vapor uptake)” value came to 2.1% in data set [3] (setting [11]) and 0.6% in data set [3] (setting [12]). The “physical stability under variable RH levels” value in data set [4] is “stable in the range 40→87→20% RH; also recorded: started to release water at RH levels below 20%”. Also, the “Solid Phase Composition” value in data set [5] (40° C./75% RH, open vial, 48 h) was “physically stable”; in data set [5] (60° C./29% RH, open vial, 48 h), “physically stable”; in data set [5] (80° C., closed vial, 24 h), “physically stable”. In addition, the figures for the Mass loss in data set [5] (setting [13]), in data set [5] (setting [14]) and in data set [5] (setting [15]) were 9.2%, 8.5% and 9.1%, respectively.
For the compound `CC(C)[C@@H](CC[C@@H](C)[C@H]1CC[C@H]2[C@@H]3[C@H](O)C[C@H]4C[C@@H](NCCCNCCCCN)CC[C@]4(C)[C@H]3CC[C@]12C)OS(=O)(=O)O.O=P(O)(O)O` [Form B1, squalamine phosphate], the “Solid Phase Composition” value in data set [5] (40° C./75% RH, open vial, 48 h) is recorded as “converted to Form A1”; in data set [5] (60° C./29% RH, open vial, 48 h), “converted to Form A1; also recorded: converting to squalamine Form A1”; in data set [5] (80° C., closed vial, 24 h), “physically stable”. Moreover, the Mass loss in data set [5] (setting [13]) was found to be 8.9%; in data set [5] (setting [14]) it was 9.0%; in data set [5] (setting [15]), 1.8%.
In the case of `CC(C)[C@@H](CC[C@@H](C)[C@H]1CC[C@H]2[C@@H]3[C@H](O)C[C@H]4C[C@@H](NCCCNCCCCN)CC[C@]4(C)[C@H]3CC[C@]12C)OS(=O)(=O)O.O=P(O)(O)O` [Form C, squalamine phosphate], the SOLUBILITY in data set [1] (setting [7]) is reported as 16.9 mg/mL; in data set [1] (setting [8]) it was “practically insoluble”; in data set [1] (FaSSIF (pH 6.5), 37° C., 3 hours, listed as C), less than 0.1 mg/mL; in data set [1] (FeSSIF (initial medium pH 5.1), 37° C., 3 hours), approximately 1 mg/mL; in data set [1] (FeSSIF (initial medium pH 5.1), 37° C., 3 hours, listed as C) it was 0.9 mg/mL. This compound also came in with an IDR in data set [2] of 0.014 mg/min/cm^2. In addition, the “API concentration in solution” value in data set [2] (after 45 minutes) is on record as “below 10%”; in data set [2] (after 60 minutes), “above 20%”. For the same compound, in data set [3], the hygroscopic behavior entry is recorded as “slightly hygroscopic”. Moreover, the change in mass in data set [3] (setting [9]) came to 6%; in data set [3] (setting [10]), 7.3%; in data set [3] (last sorption cycle, 0-25% RH), 8.1%. Moreover, the entries for the “change in mass (water vapor uptake)” value in data set [3] (setting [11]) and in data set [3] (setting [12]) were 3.1% and 1.4%, respectively. In addition, in data set [4], the “physical stability under variable RH levels” value is on record as “physically stable in the range 40→85→40% RH”. Also, the “Solid Phase Composition” value in data set [5] (40° C./75% RH, open vial, 48 h) is “physically stable”; in data set [5] (60° C./29% RH, open vial, 48 h) it was “converted to Form A1”; in data set [5] (80° C., closed vial, 24 h) it was “converted to Form A1”. Besides, the Mass loss in data set [5] (setting [13]) is 12.6%; in data set [5] (setting [14]) it was 8.7%; in data set [5] (setting [15]), 8.8%.
On to `CC(C)[C@@H](CC[C@@H](C)[C@H]1CCC2C3C(CC[C@@]21C)[C@@]1(C)CC[C@H](NCCCNCCCCN)C[C@@H]1C[C@H]3O)OS(=O)(=O)O.O=P(O)(O)O` (stereo partly shown) [Form D, squalamine phosphate], for which, in data set [6], the “physical stability upon exposure to AAC” value is listed as “physically unstable”.
